The term IC50 denotes the concentration that gives 50% inhibition. As usually defined, the DC50 is the midpoint of the concentration-degradation curve.

SMILES strings stand for the structures.

Holding throughout (format): cell-based
Assay [1] concerns RPMI2650. Description: Cancer cell antiproliferative activity / cell viability in RPMI2650 cells (72 h treatment). As to conditions: Homo sapiens, RPMI-2650, RPMI2650, read-out: BRD4 (IC50). The method in brief: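 RPMI2650 human cells were grown under specific culture conditions and seeded at 5,000 cells/well in 96-well plates. Test compounds, dissolved in DMSO as 10 mM or 50 mM stock solutions and serially diluted, were applied at various concentrations for 72 hours. IC50, the concentration giving 50% cytostasis, was averaged over three independent measurements.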

In assay [2] the test system is SNU2972. Kind of assay: Cancer cell antiproliferative activity / cell viability in SNU2972 cells (72 h treatment). As to conditions: read-out: BRD4 (IC50). As for the experimental part:
(§1) The human breast cancer cell line [MDA-MB-231] was cultured in RPMI medium with the addition of 10% fetal bovine serum, penicillin [100U/ml], and streptomycin [[…]]. The synthesized compounds were prepared with a 10 mM or 50 mM raw material solution dissolved in DMSO [dimethyl sulfoxide], and were diluted sequentially and treated. [RPMI2650] and [SNU2972] were cultivated under specific conditions.
(§2) To observe cell growth inhibition, cells were dispensed in a concentration of 5,000 cells/well in a 96-well plate, and samples prepared at various concentrations were treated for 72 hours. The IC50 value (the concentration of the compound achieving 50% cytostaticism) is the average value of the results of three independent measurements.

Assay [3] has as its target T1, BRD4-NUT (Homo sapiens, UniProt O60885+Q86Y26).
T1 construct: endogenous in cells; host or cells: RPMI2650
Kind of assay: BRD4-NUT protein degradation by western blotting in RPMI2650 cells (24 h treatment). The note with it: read-out: BRD4-NUT (DC50), RPMI2650. The method in brief: (§3)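 Cells seeded at 5 X 10^5 cells/well and exposed to serially diluted compound for 24 hours. Western blot bands were quantified by densitometry, normalized to β-actin or GAPDH and expressed as % of 0.1% DMSO vehicle. DC50 is the concentration giving 50% loss of protein.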
For orientation: A western blot detects proteins with antibodies after separation by electrophoresis.

Assay [4] has as its system MDA-MB-231. Description: Cancer cell antiproliferative activity / cell viability in MDA-MB-231 cells (72 h treatment). As to conditions: Homo sapiens, read-out: BRD4 (IC50). How it is done:
as §1, §2

In assay [5] the target is T2, BRD4 (Homo sapiens, UniProt O60885). Kind of assay: BRD4 protein degradation by western blotting in MDA-MB-231 cells (24 h treatment). Also on record: To evaluate the resolution of PROTAC for BRD4 expressed in cells; endogenous in cells; host or cells: MDA-MB-231.
Assay [6] has as its target T2, BRD4. Kind of assay: BRD4 protein degradation by western blotting in RPMI2650 cells (24 h treatment). Further details: To evaluate the resolution of PROTAC for BRD4 expressed in cells; endogenous in cells; host or cells: RPMI2650. The note with it: read-out: BR04 (DC50), RPMI2650. The method in brief:
as §3

For `Cc1sc2c(c1C)C(c1ccc(Cl)cc1)=N[C@@H](CC(=O)N1CCC(CN3CCN(c4cc5cnn(C6CCC(=O)NC6=O)c(=O)c5cc4F)CC3)CC1)c1nnc(C)n1-2` (stereo partly drawn) [ICT-0000971, 3-(6-(4-((1-(2-((S)-4-(4-chlorophenyl)-2,3,9-trimethyl-6H-thieno[3,2-f][1,2,4]triazolo[4,3-a][1,4]diazepine-6-day)acetyl)piperidine-4-il)methyl)piperazine-1-yl)7-fluoro-1-oxopthalazine-2(1H)-yl)piperidine-2,6-dione], the IC50 in assay [1], in assay [2] and in assay [4] was below 0.1 µM each time. In addition, the DC50 in assay [3], in assay [5] and in assay [6] was below 0.1 µM in each case.
Regarding `Cc1sc2c(c1C)C(c1ccc(Cl)cc1)=N[C@@H](CC(=O)N1CCC(CN3CCN(c4cc5c(=O)n(C6CCC(=O)NC6=O)ncc5cc4F)CC3)CC1)c1nnc(C)n1-2` (stereo partly drawn) [ICT-0000972, 3-(7-(4-((1-(2-((S)-4-(4-chlorophenyl)-2,3,9-trimethyl-6H-thieno[3,2-f][1,2,4]triazolo[4,3-a][1,4]diazepine-6-day)acetyl)piperidine-4-il)methyl)piperazine-1-yl)-6-fluoro-1-oxopthalazine-2(1H)-yl)piperidine-2,6-dione], the IC50 in assay [1] is 0.1 to 1 µM; in assay [2] it was below 0.1 µM; in assay [4], below 0.1 µM. Besides, the DC50 in assay [3], in assay [5] and in assay [6] was below 0.1 µM throughout.
`Cc1sc2c(c1C)C(c1ccc(Cl)cc1)=N[C@@H](CC(=O)N1CC(N3CCN(c4ccc5c(=O)n(C6CCC(=O)NC6=O)ncc5c4)CC3)C1)c1nnc(C)n1-2` (stereo partly drawn) [ICT-0000973, 3-(6-(4-(1-(2-((S)-4-(4-chlorophenyl)-2,3,9-trimethyl-6H-thieno[3,2-f][1,2,4]triazolo[4,3-a][1,4]diazepine-6-day)acetyl)azetidine-3-il)piperazine-1-yl)-1-oxopthalazine-2(1H)-yl)piperidine-2,6-dione]: the 50% inhibitory concentration (IC50) in assay [1] is 0.1 to 1 µM; in assay [2], 0.1 to 1 µM; in assay [4], below 0.1 µM. The DC50 in assay [3], in assay [5] and in assay [6] was below 0.1 µM throughout.
As for `Cc1sc2c(c1C)C(c1ccc(Cl)cc1)=N[C@@H](CC(=O)N1CC(N3CCN(c4ccc5c(=O)n(C6CCC(=O)NC6=O)nc(C)c5c4)CC3)C1)c1nnc(C)n1-2` (stereo partly drawn) [ICT-0000974, 3-(6-(4-(1-(2-((S)-4-(4-chlorophenyl)-2,3,9-trimethyl-6H-thieno[3,2-f][1,2,4]triazolo[4,3-a][1,4]diazepine-6-yl)acetyl)azetidine-3-il)piperazine-1-yl)-4-methyl-1-oxopthalazine-2(1H)-yl)piperidine-2,6-dione], the IC50 in assay [1], in assay [2] and in assay [4] was below 0.1 µM throughout. For the same compound, the half-maximal degradation concentration (DC50) in assay [3], in assay [5] and in assay [6] was below 0.1 µM throughout.
With `Cc1sc2c(c1C)C(c1ccc(Cl)cc1)=N[C@@H](CC(=O)N1CCC(CN3CCN(c4ccc5c(C)nn(C6CCC(=O)NC6=O)c(=O)c5c4)CC3)CC1)c1nnc(C)n1-2` (stereo partly drawn) [ICT-0000982, 3-(7-(4-((1-(2-((S)-4-(4-chlorophenyl)-2,3,9-trimethyl-6H-thieno[3,2-f][1,2,4]triazolo[4,3-a][1,4]diazepine-6-day)acetyl)piperidine-4-il)methyl)piperazine-1-yl)4-methyl-1-oxopthalazine-2(1H)-yl)piperidine-2,6-dione], the IC50 in assay [1], in assay [2] and in assay [4] was below 0.1 µM throughout. Besides, the DC50 in assay [3], in assay [5] and in assay [6] was below 0.1 µM throughout.
